Test [1] has as its target Ribosomal protein S6 kinase beta-1 (Homo sapiens, UniProt P23443). The test can be described thus: Selectivity interaction (ActivX KiNativ screen (ex vivo kinase selectivity in human PBMCs)) EUB0001619a RPS6KB1. The format is cell-based. Particulars: PBMC, at 1 µM.
The target of test [2] is Ribosomal protein S6 kinase alpha-1 (Homo sapiens, UniProt Q15418). The experiment in a line: Selectivity interaction (ActivX KiNativ screen (ex vivo kinase selectivity in human PBMCs)) EUB0001619a RPS6KA1. The test is classed as cell-based. The following applies: PBMC, at 1 µM.
Ribosomal protein S6 kinase alpha-1, sequence (Q15418 whole entry): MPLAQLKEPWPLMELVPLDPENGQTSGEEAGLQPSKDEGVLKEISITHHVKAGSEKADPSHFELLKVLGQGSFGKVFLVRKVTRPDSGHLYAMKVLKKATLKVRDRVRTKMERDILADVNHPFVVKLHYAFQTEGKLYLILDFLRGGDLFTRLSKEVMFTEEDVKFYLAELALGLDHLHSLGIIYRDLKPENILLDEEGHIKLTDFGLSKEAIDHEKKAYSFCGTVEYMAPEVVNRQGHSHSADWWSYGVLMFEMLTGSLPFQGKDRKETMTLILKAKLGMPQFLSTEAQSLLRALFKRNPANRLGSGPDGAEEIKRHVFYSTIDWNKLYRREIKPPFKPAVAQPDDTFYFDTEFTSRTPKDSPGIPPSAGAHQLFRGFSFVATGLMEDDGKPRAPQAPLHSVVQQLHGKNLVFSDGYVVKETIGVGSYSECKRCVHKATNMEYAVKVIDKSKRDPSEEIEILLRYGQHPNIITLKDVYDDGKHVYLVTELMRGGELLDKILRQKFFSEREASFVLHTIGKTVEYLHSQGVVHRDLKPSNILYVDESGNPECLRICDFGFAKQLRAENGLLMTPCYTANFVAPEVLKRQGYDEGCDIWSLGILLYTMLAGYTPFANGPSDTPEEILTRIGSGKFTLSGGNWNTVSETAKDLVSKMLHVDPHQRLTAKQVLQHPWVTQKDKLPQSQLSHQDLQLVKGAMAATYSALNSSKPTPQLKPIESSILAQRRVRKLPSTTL
Test [3] concerns the target T1, Mitogen-activated protein kinase 9 (Homo sapiens, UniProt P45984). The experiment in a line: Selectivity interaction (KinomeScan (DiscoverX)) EUB0000666a MAPK9. The following applies: at 10 µM.
Test [4] deals with T2, Serine/threonine-protein kinase greatwall (Homo sapiens) (UniProt Q96GX5).
T2 sequence (whole entry): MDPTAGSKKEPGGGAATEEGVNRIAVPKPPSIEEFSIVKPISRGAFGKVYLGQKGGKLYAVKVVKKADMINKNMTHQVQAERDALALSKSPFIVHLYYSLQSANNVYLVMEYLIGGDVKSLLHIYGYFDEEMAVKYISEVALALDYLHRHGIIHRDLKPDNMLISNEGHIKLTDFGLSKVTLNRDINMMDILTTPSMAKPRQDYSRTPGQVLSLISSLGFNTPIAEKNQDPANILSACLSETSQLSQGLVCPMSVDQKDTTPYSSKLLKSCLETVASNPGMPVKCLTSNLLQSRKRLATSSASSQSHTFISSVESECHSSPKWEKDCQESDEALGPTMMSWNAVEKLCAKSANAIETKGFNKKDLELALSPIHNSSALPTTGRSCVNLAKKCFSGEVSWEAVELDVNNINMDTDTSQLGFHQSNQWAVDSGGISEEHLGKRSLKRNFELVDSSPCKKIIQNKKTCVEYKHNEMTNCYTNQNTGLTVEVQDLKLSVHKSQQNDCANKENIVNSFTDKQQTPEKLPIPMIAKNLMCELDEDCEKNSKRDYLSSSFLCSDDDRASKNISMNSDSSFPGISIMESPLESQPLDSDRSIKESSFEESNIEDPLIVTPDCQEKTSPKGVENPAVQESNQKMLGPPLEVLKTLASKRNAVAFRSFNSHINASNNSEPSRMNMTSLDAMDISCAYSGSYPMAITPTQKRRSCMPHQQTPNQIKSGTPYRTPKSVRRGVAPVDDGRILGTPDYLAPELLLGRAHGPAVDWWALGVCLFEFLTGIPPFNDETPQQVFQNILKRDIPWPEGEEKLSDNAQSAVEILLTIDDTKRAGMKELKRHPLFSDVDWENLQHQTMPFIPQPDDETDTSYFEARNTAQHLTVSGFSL
The experiment in a line: Selectivity interaction (ActivX KiNativ screen (kinase selectivity in THP-1 cell lysates)) EUB0000639a MASTL. The following applies: lysate, at 0.01 µM. The format is subcellular.

Test [5] relates to Epidermal growth factor receptor (Homo sapiens), P00533 [UNDEFINED MUTATION]. The test can be described thus: Selectivity interaction (ProQinase) EUB0000171b EGFR. Particulars: at 5 µM.
Epidermal growth factor receptor (Homo sapiens), P00533 [UNDEFINED MUTATION], sequence (P00533 whole entry, looked up, change not shown): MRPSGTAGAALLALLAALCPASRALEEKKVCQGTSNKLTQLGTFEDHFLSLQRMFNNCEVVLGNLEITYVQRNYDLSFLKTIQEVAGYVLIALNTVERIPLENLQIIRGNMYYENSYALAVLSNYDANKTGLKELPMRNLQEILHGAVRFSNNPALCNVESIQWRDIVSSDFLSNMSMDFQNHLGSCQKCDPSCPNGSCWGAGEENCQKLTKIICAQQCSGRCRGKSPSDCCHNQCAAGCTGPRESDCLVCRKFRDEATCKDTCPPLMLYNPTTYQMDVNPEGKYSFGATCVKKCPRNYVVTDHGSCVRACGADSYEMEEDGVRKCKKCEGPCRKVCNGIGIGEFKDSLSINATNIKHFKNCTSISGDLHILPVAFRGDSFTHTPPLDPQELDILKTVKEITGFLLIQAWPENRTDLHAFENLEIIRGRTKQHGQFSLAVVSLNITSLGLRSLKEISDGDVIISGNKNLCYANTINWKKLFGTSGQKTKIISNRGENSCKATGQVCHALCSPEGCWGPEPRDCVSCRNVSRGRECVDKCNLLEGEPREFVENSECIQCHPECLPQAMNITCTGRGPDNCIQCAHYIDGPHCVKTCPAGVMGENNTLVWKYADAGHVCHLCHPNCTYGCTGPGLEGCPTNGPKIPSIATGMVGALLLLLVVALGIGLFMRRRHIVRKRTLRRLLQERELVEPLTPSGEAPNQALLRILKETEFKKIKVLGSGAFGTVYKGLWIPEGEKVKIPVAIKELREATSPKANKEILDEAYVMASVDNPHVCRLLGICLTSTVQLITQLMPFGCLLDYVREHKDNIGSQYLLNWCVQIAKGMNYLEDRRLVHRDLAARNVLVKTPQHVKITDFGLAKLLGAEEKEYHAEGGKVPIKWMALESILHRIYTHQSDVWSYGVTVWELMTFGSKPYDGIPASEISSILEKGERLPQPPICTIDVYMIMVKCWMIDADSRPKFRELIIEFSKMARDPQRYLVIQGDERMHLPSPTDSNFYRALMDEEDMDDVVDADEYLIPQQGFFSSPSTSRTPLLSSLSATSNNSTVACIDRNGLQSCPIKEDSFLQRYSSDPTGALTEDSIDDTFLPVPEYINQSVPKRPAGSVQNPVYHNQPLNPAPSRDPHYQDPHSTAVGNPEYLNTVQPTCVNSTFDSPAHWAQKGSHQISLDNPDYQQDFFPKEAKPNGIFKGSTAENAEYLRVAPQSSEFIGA
For test [6], the target named is T3, Serine/threonine-protein kinase D2 (Homo sapiens) (UniProt Q9BZL6).
T3 sequence (whole entry): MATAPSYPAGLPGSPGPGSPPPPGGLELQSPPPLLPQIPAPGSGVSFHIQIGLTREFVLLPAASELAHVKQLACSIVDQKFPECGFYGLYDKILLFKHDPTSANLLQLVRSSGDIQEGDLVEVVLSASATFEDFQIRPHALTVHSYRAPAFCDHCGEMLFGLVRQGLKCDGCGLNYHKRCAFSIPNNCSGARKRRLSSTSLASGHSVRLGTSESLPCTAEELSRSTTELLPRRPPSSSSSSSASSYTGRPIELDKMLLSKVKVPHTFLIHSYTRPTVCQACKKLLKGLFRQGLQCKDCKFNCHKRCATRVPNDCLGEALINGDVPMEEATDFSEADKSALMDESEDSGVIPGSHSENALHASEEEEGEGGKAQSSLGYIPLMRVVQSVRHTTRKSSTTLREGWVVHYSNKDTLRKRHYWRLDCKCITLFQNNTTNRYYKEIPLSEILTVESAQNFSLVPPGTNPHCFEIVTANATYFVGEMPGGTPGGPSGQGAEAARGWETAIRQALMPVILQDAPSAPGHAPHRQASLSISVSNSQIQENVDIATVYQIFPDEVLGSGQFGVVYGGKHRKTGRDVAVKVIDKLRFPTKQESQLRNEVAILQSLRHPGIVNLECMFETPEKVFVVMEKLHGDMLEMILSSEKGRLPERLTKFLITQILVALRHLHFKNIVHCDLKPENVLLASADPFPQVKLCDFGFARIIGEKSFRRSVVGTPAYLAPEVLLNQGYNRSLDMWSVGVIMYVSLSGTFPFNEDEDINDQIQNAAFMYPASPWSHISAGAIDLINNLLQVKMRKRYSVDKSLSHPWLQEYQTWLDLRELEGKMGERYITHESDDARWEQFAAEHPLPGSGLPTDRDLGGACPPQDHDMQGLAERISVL
The test can be described thus: Selectivity interaction (Ambit KINOMEscan and KiNATiv profiling in Jurkat cells) EUB0000090b PRKD2. The format is cell-based. Particulars: at 1 µM.

The target of test [7] is Mitogen-activated protein kinase 4 (Homo sapiens) (UniProt P31152). The test can be described thus: Selectivity interaction (KinomeScan (DiscoverX)) EUB0000655a MAPK4. The following applies: at 10 µM.
Mitogen-activated protein kinase 4 (Homo sapiens), sequence (P31152 whole entry): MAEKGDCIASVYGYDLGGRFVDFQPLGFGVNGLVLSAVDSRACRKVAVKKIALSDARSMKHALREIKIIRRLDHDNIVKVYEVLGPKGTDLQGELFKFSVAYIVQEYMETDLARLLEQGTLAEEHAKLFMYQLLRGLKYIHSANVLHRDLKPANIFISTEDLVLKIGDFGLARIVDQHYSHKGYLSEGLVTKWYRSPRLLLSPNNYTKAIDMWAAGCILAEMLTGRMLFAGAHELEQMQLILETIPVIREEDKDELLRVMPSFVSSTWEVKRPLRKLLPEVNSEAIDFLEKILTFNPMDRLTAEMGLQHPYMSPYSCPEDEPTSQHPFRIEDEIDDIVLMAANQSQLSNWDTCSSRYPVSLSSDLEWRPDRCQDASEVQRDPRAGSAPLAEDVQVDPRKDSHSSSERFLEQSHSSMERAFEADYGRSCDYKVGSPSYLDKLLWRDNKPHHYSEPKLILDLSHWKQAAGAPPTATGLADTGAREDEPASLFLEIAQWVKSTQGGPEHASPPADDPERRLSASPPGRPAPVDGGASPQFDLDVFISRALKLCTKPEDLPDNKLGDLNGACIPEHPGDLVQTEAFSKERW
Test [8] relates to Receptor-type tyrosine-protein kinase FLT3 (Homo sapiens), P36888 [UNDEFINED MUTATION]. The experiment in a line: Selectivity interaction (KinomeScan (DiscoverX)) EUB0000092b FLT3. Particulars: at 10 µM.
Receptor-type tyrosine-protein kinase FLT3 (Homo sapiens), P36888 [UNDEFINED MUTATION], sequence (P36888 whole entry, looked up, change not shown): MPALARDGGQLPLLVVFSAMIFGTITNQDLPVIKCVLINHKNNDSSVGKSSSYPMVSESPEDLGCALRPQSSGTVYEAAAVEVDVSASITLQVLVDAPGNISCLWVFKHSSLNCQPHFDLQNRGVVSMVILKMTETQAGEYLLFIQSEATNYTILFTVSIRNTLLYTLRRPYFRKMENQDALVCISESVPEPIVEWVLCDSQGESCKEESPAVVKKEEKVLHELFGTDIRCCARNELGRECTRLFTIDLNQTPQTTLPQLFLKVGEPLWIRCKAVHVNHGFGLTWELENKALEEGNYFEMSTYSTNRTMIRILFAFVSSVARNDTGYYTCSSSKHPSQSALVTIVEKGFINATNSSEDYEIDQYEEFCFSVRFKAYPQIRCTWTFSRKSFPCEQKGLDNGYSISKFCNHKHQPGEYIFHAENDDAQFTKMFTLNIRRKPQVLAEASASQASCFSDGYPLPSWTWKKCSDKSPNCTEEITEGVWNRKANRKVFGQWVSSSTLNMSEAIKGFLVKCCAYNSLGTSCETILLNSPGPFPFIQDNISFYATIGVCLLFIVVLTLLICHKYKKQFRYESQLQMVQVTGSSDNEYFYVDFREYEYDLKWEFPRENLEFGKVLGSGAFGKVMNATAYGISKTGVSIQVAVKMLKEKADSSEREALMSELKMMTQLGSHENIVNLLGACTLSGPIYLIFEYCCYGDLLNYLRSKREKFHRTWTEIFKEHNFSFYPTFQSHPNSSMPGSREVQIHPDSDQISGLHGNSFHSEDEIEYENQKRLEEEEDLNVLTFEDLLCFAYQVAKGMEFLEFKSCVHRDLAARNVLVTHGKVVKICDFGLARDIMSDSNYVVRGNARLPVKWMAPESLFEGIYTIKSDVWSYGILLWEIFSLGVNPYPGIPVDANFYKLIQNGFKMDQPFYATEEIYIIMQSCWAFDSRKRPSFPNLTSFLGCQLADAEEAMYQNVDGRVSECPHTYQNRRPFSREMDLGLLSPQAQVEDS
The target in test [9] is T4, Serine/threonine-protein kinase VRK1 (Homo sapiens) (UniProt Q99986).
T4 sequence (whole entry): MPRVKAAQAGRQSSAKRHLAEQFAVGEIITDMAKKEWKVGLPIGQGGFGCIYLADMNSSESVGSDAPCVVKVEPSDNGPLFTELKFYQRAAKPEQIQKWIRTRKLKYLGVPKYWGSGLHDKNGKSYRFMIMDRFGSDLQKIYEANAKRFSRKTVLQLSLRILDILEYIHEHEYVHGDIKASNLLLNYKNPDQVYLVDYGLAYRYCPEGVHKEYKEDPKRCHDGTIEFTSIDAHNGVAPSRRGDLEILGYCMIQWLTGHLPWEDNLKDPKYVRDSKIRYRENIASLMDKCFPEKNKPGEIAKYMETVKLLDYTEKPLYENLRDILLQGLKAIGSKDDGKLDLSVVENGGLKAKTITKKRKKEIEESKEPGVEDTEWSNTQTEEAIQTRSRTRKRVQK
The experiment in a line: Selectivity interaction (Kinase panel (DSF assay)) EUB0001558a VRK1. In general terms: DSF heats the sample and reads unfolding from a dye or from intrinsic fluorescence.

Test [10] addresses T1, Mitogen-activated protein kinase 9. The experiment in a line: Selectivity interaction (Millipore kinase profiler) EUB0000124b MAPK9. Particulars: at 10 µM.
Test [11] concerns the target Serine/threonine-protein kinase mTOR (Homo sapiens, UniProt P42345). The test can be described thus: Selectivity interaction (KinomeScan (DiscoverX)) EUB0000229b MTOR. The following applies: at 10 µM.

T1 sequence (P45984 whole entry, looked up): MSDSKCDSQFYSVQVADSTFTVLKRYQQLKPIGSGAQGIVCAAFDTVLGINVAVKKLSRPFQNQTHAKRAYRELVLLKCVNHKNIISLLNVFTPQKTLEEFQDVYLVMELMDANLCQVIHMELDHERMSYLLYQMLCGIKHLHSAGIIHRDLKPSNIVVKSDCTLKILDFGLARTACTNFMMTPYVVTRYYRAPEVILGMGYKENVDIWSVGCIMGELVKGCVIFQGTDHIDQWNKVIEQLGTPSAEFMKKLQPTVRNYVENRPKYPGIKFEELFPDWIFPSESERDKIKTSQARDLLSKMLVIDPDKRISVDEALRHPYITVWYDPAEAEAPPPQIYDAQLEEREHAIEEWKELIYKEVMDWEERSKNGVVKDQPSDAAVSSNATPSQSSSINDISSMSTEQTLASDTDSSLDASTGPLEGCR
Ribosomal protein S6 kinase beta-1, sequence (P23443 whole entry, looked up): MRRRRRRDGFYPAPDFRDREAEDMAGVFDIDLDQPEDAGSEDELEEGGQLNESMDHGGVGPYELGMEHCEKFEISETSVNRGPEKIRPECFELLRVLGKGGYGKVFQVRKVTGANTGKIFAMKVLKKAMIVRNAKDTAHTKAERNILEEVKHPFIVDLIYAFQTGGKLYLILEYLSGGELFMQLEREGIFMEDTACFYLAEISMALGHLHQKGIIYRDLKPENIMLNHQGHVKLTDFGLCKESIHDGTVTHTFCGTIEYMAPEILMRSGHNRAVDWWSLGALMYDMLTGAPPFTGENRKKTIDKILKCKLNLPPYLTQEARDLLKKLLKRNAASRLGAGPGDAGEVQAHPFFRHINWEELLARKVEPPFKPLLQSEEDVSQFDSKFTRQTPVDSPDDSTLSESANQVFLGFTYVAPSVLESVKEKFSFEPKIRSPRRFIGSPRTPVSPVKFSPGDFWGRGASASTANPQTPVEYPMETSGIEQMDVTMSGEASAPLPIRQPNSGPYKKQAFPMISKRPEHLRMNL

In the case of `N#Cc1cccc(-c2c[nH]c3ncnc(N4CCOCC4)c23)c1`, the % of inhibition in test [1] is 11%; in test [2] it was -3%.

In test [3], `O=C(NOC[C@H](O)CO)c1ccc(F)c(F)c1Nc1ccc(I)cc1F` showed a % of control of 88%.

With `CC[C@@H]1[C@H](F)C(=O)N[C@@H]1COc1nccc2cc(C(N)=O)c(OC)cc12` [ZIMLOVISERTIB], the % of inhibition in test [4] came out at 16.1%.

`C=CC(=O)Nc1cccc(C(=O)Nc2ccc(Nc3cc(-c4[nH]c(SC)nc4C)ccn3)cc2)c1`: in test [5], the % of control came out at 96%.

On to `CN(C)C/C=C/C(=O)Nc1ccc(C(=O)N2CCCC(Nc3ncc(Cl)c(-c4c[nH]c5ccccc45)n3)C2)cc1` (stereo unspecified), for which the % of control in [6] was found to be 55%.

For the molecule `CN(C)CCOc1ccc(-c2nc(-c3ccncc3)c(-c3ccc4c(c3)CC/C4=N\O)[nH]2)cc1`, the % of control in test [7] stood at 100%.

For `CCC(=O)N1CCN(c2ccc(-n3c(=O)ccc4cnc5ccc(-c6cnc7ccccc7c6)cc5c43)cc2C(F)(F)F)CC1`, the % of control in [8] was 29%.

Regarding `CC(C)(O)[C@H](F)CN1Cc2cc(NC(=O)c3cnn4cccnc34)c(N3CCOCC3)cc2C1=O`, the dTM in test [9] is -0.3 K.

In test [10], `CC(=O)Nc1cccc(-n2c(=O)n(C3CC3)c(=O)c3c(Nc4ccc(I)cc4F)n(C)c(=O)c(C)c32)c1` registered a % of control of 97%.

Regarding `COc1cc(N(C)c2ccnc3ccc(C(F)(F)F)cc23)cc(OC)c1OC`, in test [11], the % binding is 94%.
